The values that follow come from US8754113B2, “Oxadiazole derivative having endothelial lipase inhibitory activity” (Shionogi & Co., Ltd., priority 2009, dated 2014).

Each structure is given as a SMILES string.

Chain of human endothelial lipase (EL) (Q9Y5X9 21-500): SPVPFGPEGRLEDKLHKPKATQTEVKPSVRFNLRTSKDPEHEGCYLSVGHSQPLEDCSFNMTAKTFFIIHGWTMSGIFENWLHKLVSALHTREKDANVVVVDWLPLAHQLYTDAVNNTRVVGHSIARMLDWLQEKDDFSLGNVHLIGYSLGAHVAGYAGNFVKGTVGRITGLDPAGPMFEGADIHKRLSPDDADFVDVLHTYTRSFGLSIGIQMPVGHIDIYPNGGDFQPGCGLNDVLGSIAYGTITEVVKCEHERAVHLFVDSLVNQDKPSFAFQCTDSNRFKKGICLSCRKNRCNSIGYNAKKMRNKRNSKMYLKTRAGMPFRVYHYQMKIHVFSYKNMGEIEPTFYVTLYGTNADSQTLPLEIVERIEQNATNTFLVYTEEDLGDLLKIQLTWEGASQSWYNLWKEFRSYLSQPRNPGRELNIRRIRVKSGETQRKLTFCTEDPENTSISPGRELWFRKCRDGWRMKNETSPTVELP

The experiment concerns the target human endothelial lipase (EL) (Homo sapiens (Human), UniProt Q9Y5X9). Briefly: Human endothelial lipase (EL) inhibitory activity using human HDL (NEFA release). It counts as biochemical. The note with it: human HDL 2 mg/ml substrate, 4-hour reaction at 37° C., NEFA readout; read-out: IC50 (50% inhibitory concentration), EL inhibitory activity. How it is done: Evaluation Method of Human Endothelial Lipase (EL) Inhibitory Activity Using Human High-Density Lipoprotein (HDL)
After the present compound dissolved in DMSO was added to become 0.5% DMSO to the reaction buffer consisting of 20 mM tris hydrochloric acid (pH7.4), bovine serum albumin (0.5%), calcium chloride (4 mM), sodium chloride (150 mM) and human HDL (2 mg/ml), the EL enzyme was added (total volume was 20 μl).
After 4-hour reaction at 37° C., non-esterified fatty acid (NEFA) generated from HDL by EL was measured with a commercially available assay kit and the amount of NEFA was used as an index of enzyme activity.
For `N#CCNC(=O)Cc1nnc(Cc2nc3c(-c4ccccc4)cccc3s2)o1` [Compound I-2-197], the IC50 came to 12 nM.

Take `N#CC1(NC(=O)Cc2nnc(Cc3nc4ccc(-c5ccc(Cl)cc5)c(F)c4s3)o2)CC1` [Compound A-13]: the IC50 came to 22 nM.

For `O=C(Cc1nnc(Cc2nc3c(-c4ccccc4)cccc3s2)o1)NC1(CO)CC1` [Compound I-3-12], the IC50 is 78 nM.

Consider `N#CC1(NC(=O)Cc2nnc(Cc3nc4cnc(-c5ccccc5)cc4s3)o2)CC1` [Compound A-10], for which the IC50 turned out to be 8 nM.

In the case of `N#CC1(NC(=O)Cc2nnc(Cc3nc4ccc(-c5ccc(F)s5)cc4s3)o2)CC1` [Compound I-3-163], the IC50 was 9 nM.

Turning to `CC(C#N)NC(=O)Cc1nnc(Cc2nc3ccc(-c4ccccc4)cc3s2)o1` (stereo not drawn) [Compound I-3-37], the IC50 is 2 nM.

Regarding `N#CCNC(=O)Cc1nnc(Cc2ccc3cc(-c4ccccc4)ccc3n2)o1` [Compound I-2-204], the IC50 amounted to 190 nM.

Take `Cc1ccc(-c2ccc3nc(Cc4nnc(CC(=O)NC5(C#N)CC5)o4)sc3c2F)s1` [Compound A-9]: the IC50 was 11 nM.

In the case of `Cn1cc(-c2ccc3nc(Cc4nnc(CC(=O)NC5(C#N)CC5)o4)sc3c2Cl)cn1` [Compound A-21], the IC50 amounted to 65 nM.

For the molecule `N#CCNC(=O)Cc1nnc(Cc2cnc3cc(-c4ccccc4)ccc3n2)o1` [Compound I-2-215], the IC50 was determined as 2500 nM.

Consider `N#CC1(NC(=O)Cc2nnc(Cc3nc4ccc(-c5ccccn5)cc4s3)o2)CC1` [Compound I-3-1], for which the IC50 worked out at 11 nM.

As to `O=C(Cc1nnc(Cc2nc3ccc(-c4ccc(F)cc4)cc3s2)o1)NC1(CO)CC1` [Compound I-3-6], the IC50 is 52 nM.

Regarding `O=C(O)Cc1nnc(Cc2nc3ccc(-c4ccccc4)cc3s2)o1` [Compound I-1-2], the IC50 is 120 nM.

With `N#CC1(NC(=O)Cc2nnc(Cc3nc4c(-c5ccccc5)cccc4s3)o2)CC1` [Compound I-3-11], the IC50 is 9 nM.

In the case of `CS(=O)(=O)NCc1nnc(Cc2nc3ccc(-c4ccccc4)cc3s2)o1` [Compound I-1-23], the IC50 amounted to 73 nM.

As for `N#CC1(NC(=O)Cc2nnc(Cc3nc4ccc(-c5cc6ccccc6s5)cc4s3)o2)CC1` [Compound I-3-93], the IC50 worked out at 28 nM.

Regarding `N#CCNC(=O)Cc1nnc(Cc2nc3cc(-c4ccccc4)ccc3o2)o1` [Compound I-1-43], the IC50 came out at 390 nM.

As to `NS(=O)(=O)NCc1nnc(Cc2nc3ccc(-c4ccccc4)cc3s2)o1` [Compound I-1-85], the IC50 came out at 6 nM.

For the molecule `N#CC1(NC(=O)Cc2nnc(Cc3nc4ccc(-c5ccc(Cl)s5)cc4s3)o2)CC1` [Compound I-3-56], the IC50 was determined as 4 nM.

In the case of `N#CC1(NC(=O)Cc2nnc(Cc3nc4ccc(C5=CCOCC5)cc4s3)o2)CC1` [Compound I-3-48], the IC50 was 8 nM.

In the case of `O=C(O)CCc1nnc(Cc2nc3ccc(-c4ccccc4)cc3s2)o1` [Compound I-1-9], the IC50 turned out to be 260 nM.

Take `Cn1cc(-c2ccc3nc(Cc4nnc(CC(=O)NC5(C#N)CC5)o4)sc3n2)cn1` [Compound A-19]: the IC50 is 110 nM.

For the molecule `N#CC1(NC(=O)Cc2nnc(Cc3nc4ccc(-c5ccc(Cl)cn5)cc4s3)o2)CC1` [Compound I-3-146], the IC50 came out at 27 nM.

In the case of `N#CC1(NC(=O)Cc2nnc(Cc3nc4ccc(-c5ncccn5)cc4s3)o2)CC1` [Compound I-3-145], the IC50 was 69 nM.

Turning to `N#CC1(NC(=O)Cc2nnc(Cc3nc4ccc(-c5ncc(F)cn5)cc4s3)o2)CC1` [Compound I-3-112], the IC50 is 44 nM.

In the case of `O=C(NCCc1nnc(Cc2nc3ccc(-c4ccccc4)cc3s2)o1)C1CC1` [Compound I-1-7], the IC50 turned out to be 19 nM.

On to `COc1cc(-c2cnn(C)c2)cc2sc(Cc3nnc(CC(=O)NC4(C#N)CC4)o3)nc12` [Compound A-25], for which the IC50 came out at 42 nM.

As to `N#CC1(NC(=O)Cc2nnc(Cc3nc4ccc(Cc5ccc(F)cc5)cc4s3)o2)CC1` [Compound I-3-41], the IC50 is 14 nM.

Turning to `N#CCNC(=O)Cc1nnc(C(F)(F)c2nc3ccc(-c4ccccc4)cc3s2)o1` [Compound I-3-21], the IC50 is 250 nM.

For `O=C(Cc1nnc(Cc2nc3ccc(-c4ccccc4)cc3s2)o1)Nc1ccccc1` [Compound I-1-83], the IC50 was found to be 5 nM.

In the case of `O=C(Cc1nnc(Cc2nc3ccc(-c4ccccc4)cc3s2)o1)NCCO` [Compound I-1-31], the IC50 is 83 nM.

In the case of `Cn1cc(-c2ccc3sc(Cc4nnc(CC(=O)NC5(C#N)CC5)o4)nc3c2)cn1` [Compound I-3-4], the IC50 was found to be 4 nM.

As to `N#CC1(NC(=O)Cc2nnc(Cc3nc4ccc(-c5ccccc5)c(Cl)c4s3)o2)CC1` [Compound A-17], the IC50 came out at 41 nM.

`Cn1ccc(-c2ccc3nc(Cc4nnc(CC(=O)NC5(C#N)CC5)o4)sc3c2)n1` [Compound I-2-198]: the IC50 is 15 nM.

As to `N#CCCc1nnc(Cc2nc3ccc(-c4ccccc4)cc3s2)o1` [Compound I-1-27], the IC50 came to 85 nM.

For the molecule `O=C(Cc1nnc(Cc2nc3ccc(-c4ccccc4)cc3s2)o1)N1CC(O)C1` [Compound I-3-23], the IC50 came to 400 nM.

As for `O=C(Cc1nnc(Cc2nc3ccc(-c4ccccc4)cc3s2)o1)NC1COC1` [Compound I-3-30], the IC50 worked out at 46 nM.

For the molecule `N#CCNC(=O)Cc1nnc(Cc2nc3ccc(-c4ccccc4)cc3s2)o1` [Compound I-1-3], the IC50 turned out to be 26 nM.

Consider `N#CCNC(=O)Cc1nnc(Cc2nc3c(Br)cccc3s2)o1` [Compound I-2-196], for which the IC50 was 36 nM.

As for `N#CCNC(=O)Cc1nnc(Cc2ccc(-c3ccccc3)cn2)o1` [Compound I-2-216], the IC50 was found to be 23000 nM.

On to `Cc1ccc(-c2ccc3nc(Cc4nnc(CC(=O)NC5(C#N)CC5)o4)sc3n2)s1` [Compound A-14], for which the IC50 stood at 160 nM.

Turning to `O=C(Cc1nnc(Cc2nc3ccc(-c4ccccc4)cc3s2)o1)N1CCOCC1` [Compound I-1-82], the IC50 is 52 nM.
